According to patent US20230002346A1, “NEW COMPOUNDS AND METHODS” (BenevolentAl Bio Limited, priority 2019, published 2023):

Test: Brain to plasma (B:P) ratio in rat
Assay type: in vivo, Sprague Dawley Rats
Settings: male, Sprague Dawley, po, p.o. 3.0 mg/kg, 30% HPBC in water, timepoints averaged 0.5-4 h
Protocol: Male Sprague Dawley Rats 300-350 g (Charles River, UK) were group housed, n=3, under a 12 h light/dark cycle with food and water available ad libitum. At 17:00 on the day prior to dosing all food was removed. On the day of dosing animals were weighed, tail marked and dosed via oral gavage with compound at 3 mg/kg in a volume of 5 mL/kg. Animals were culled at 30 min, 1 h and 4 h post dose via intra-peritoneal administration of pentobarbital. Post mortem blood was withdrawn via cardiac puncture, and briefly stored in K2 EDTA blood tubes on ice before being spun at 14,000 g for 4 min at 4° C. Plasma was withdrawn into a 96 well plate, placed on dry ice and stored at −80° C. Brains were quickly dissected and placed on dry ice before storage at −80° C. Bioanalysis of plasma and brain samples is performed as detailed below. Methods were prepared with guidance from industry standard documents.^i,ii […] Calibration lines are prepared in control male Sprague-Dawley Rat plasma at known concentrations in the range of 1-10000 ng/mL by spiking 2.5 μL of calibration spiking solution into 25 μL control plasma. Experimental samples are thawed to RT and 25 μL aliquots are extracted alongside the calibration lines using protein precipitation (agitation for at least 5 min at RT with 400 μL of MeCN containing 25 ng/mL tolbutamide as an internal standard). Protein precipitates are separated from the extracted test compound by centrifugation at 4000 rpm for 5 min, 4° C. […] Samples are analysed by UPLC-MS/MS on either an API6500 QTrap or Waters 30 TQS mass spectrometer using previously optimised analytical MRM (multiple reaction monitoring) methods, specific to the test compound. The concentration of test compound in isolated samples is determined following analysis of the samples against the two replicates of the calibration line, injected before and after the sample set with an appropriate regression and weighting used. Only samples within 20% of the expected test concentration are included in the calibration line and any samples that fall outside of the limits of the calibration line will be deemed to be less than or above the limit of quantification (LLoQ/ALoQ). […] Calibration lines are prepared in control male Sprague-Dawley Rat brain homogenate at known concentrations in the range of 3-30000 ng/g by spiking 2.5 μL of calibration spiking solution into 25 μL control homogenate. To prepare control and experimental brain homogenates, brains are thawed, weighed and a volume of diluent added (water) in the ratio of 2 mL per gram of brain. Homogenisation of brains is performed by bead-beater homogenisation using Precellys Evolution and CK14 7 mL small ceramic bead homogenisation tubes. Aliquots of 25 μL experimental sample are extracted alongside the calibration lines using protein precipitation (agitation for at least 5 min at RT with 400 μL of MeCN containing 25 ng/mL tolbutamide as an internal standard). Protein precipitates are separated from the extracted test compound by centrifugation at 4000 rpm for 5 min, 4° C. […] Samples are analysed by UPLC-MS/MS on either an API6500 QTrap or Waters TQS mass spectrometer using previously optimised analytical MRM (multiple reaction monitoring) methods, specific to the test compound. The concentration of test compound in isolated samples is determined following analysis of the samples against the two replicates of the calibration line, injected before and after the sample set with an appropriate regression and weighting used. Only samples within 20% of the expected test concentration are included in the calibration line and any samples that fall outside of the limits of the calibration line will be deemed to be less than or above the limit of quantification (LLoQ/ALoQ). Total brain to plasma (B:P) ratios were calculated by dividing the concentration in the brain by the concentration in plasma for each timepoint. The mean brain to plasma ratio is calculated by averaging these brain to plasma ratios across certain timepoints. […]

Kp: 1.91
SMILES: O=C(Nc1ccc(OC(F)(F)Cl)cc1)c1ccc(=O)n(-c2ccccc2)c1 [Example 56, N-[4-[Chloro(difluoro)methoxy]phenyl]-6-oxo-1-phenyl-pyridine-3-carboxamide]
